Here are results for one compound from US8633242B2, “Benzylidene indanones and processes for preparation and use thereof” (Council of Scientific and Industrial Research, priority 2011, dated 2014).

One series concerns HeLa (Cervix). The experiment in a line: Sulphorhodamine B cytotoxicity assay, HeLa. Format: cell-based, human. The conditions noted are these: SRB assay, 48 hours incubation. Also noted: key to Human cancer cell lines IC50, HeLa (Cervix): Inactive: inactive, if IC50 > 100 μM. The protocol:
(§1) The benzylidene analogues were evaluated by Sulphorhodamine B Assay as per reported method [Skehan et al., J. Natl. Cancer Inst. 1990, 82, 1107]. The human cancer cell lines procured from National Cancer institute, Frederick, U.S.A. were used in present study. Cells were grown in tissue culture flasks in complete growth medium (RPMI-1640 medium with 2 mM glutamine, pH 7.4 supplemented with 10% fetal bovine serum, 100 μg/ml streptomycin and 100 units/ml penicillin) in a carbon dioxide incubator (37° C., 5% CO2, 90% RH). The cells at subconfluent stage were harvested from the flask by treatment with trypsin (0.05% in PBS (pH 7.4) containing 0.02% EDTA). Cells with viability of more than 98%, as determined by trypan blue exclusion, were used for determination of cytotoxicity. The cell suspension required concentration of cells was prepared in complete growth medium. Stock solution of 2×10^−2 M of compounds were prepared in DMSO and further dilution was carried out complete growth medium containing 50 μg/ml of gentamycin to obtained working test solution of required concentration. In vitro cytotoxicity against various human cancer cell lines was determined using 96-well cell culture plates. The 100 μl of cell suspension was added to each well of the 96-well cell culture plates. The cells were allowed to grow in CO2 incubator (37° C., 5% CO2, 90% RH) for 24 hours. The test materials in complete growth medium (100 μl) were added after 24 hours incubation to the wells containing cell suspension. The plates were further incubated for 48 hours (37° C. in an atmosphere of 5% CO2 and 90% relative humidity) in a carbon dioxide incubator after addition of test material and then the cell growth was stopped by gently layering trichloroacetic acid (50% TCA, 50 μl) on top of the medium in all the wells. The plates were incubated at 4° C. for one hour to fix the cells attached to the bottom of the wells. The liquid of all the wells was gently pipetted out and discarded. The plates were washed five times with distilled water to remove TCA, growth medium low molecular weight metabolites, serum proteins etc. and air-dried. Cell growth was measured by staining with sulforhodamine B dye. The adsorbed dye was dissolved in Tris-HCl Buffer (100 μl/well, 0.01M, pH 10.4) and plates were gently stirred for 10 minutes on a mechanical stirrer. The optical density (OD) was recorded on ELISA reader at 540 nm. 5-Fluorouracil, Paclitaxel (Taxol), Mitomycin-c and Adriamycin were used as positive controls.
On the technique in general: The SRB assay estimates cell density from bound dye.

A further series relates to MCF-7 (Breast cancer). As to the kind of experiment: Sulphorhodamine B cytotoxicity assay, MCF-7. It counts as cell-based, human. The conditions noted are these: Homo sapiens, MCF7; SRB assay, 48 hours incubation; read-out: Human cancer cell lines IC50, MCF-7 (Breast cancer). On the procedure: as §1
For another series, the system named is PC-3 (prostate). The experiment in a line: Sulphorhodamine B cytotoxicity assay, PC-3. Format: cell-based, human. Also noted: key to Human cancer cell lines IC50, PC-3 (prostate): Inactive: inactive, if IC50 > 100 μM. To be noted: SRB assay, 48 hours incubation. The protocol: as §1
Another series concerns tubulin protein. The experiment in a line: In-vitro tubulin polymerisation inhibition assay. Format: biochemical. The protocol: The tubulin polymerization experiment was performed using ‘assay kit’ (Cytoskeleton USA) following manufacturer's protocol based on the procedure described by of Shelanski et al. (1973) and Lee et al. (1977). Briefly, tubulin protein (3 mg/mL) in tubulin polymerization buffer (80 mM PIPES, pH 6.9, 2 mM MgCl2, 0.5 mM EGTA, 1 mM GTP and 15% glycerol) was placed in pre-warmed 96-well microtiter plates at 37° C. in the presence of test compounds with variable concentrations. All samples were mixed well and polymerization was monitored kinetically at 340 nm every min for 1 h using a Spectramax plate reader. Podophyllotoxin and etoposide were used as positive controls and DMSO as negative control. The IC50 value was determined from dose-dependent analysis and is defined as the concentration that inhibits the rate of polymerization by 50%.
Podophyllotoxin and etoposide, standard tubulin polymerisation inhibitors were used as positive controls.

Another series has as its system A549 (Lung). As to the kind of experiment: Sulphorhodamine B cytotoxicity assay, A549. It counts as cell-based, human. Also noted: key to Human cancer cell lines IC50, A549 (Lung): Inactive: inactive, if IC50 > 100 μM. To be noted: SRB assay, 48 hours incubation. The protocol:
as §1

Another series deals with DU-145 (prostate). As to the kind of experiment: Sulphorhodamine B cytotoxicity assay, DU-145. It counts as cell-based, human. Also noted: key to Human cancer cell lines IC50, DU-145 (prostate): Inactive: inactive, if IC50 > 100 μM. To be noted: SRB assay, 48 hours incubation. On the procedure:
as §1

Another series concerns HCT (Colon). The experiment in a line: Sulphorhodamine B cytotoxicity assay, HCT. Format: cell-based, human. Also noted: key to Human cancer cell lines IC50, HCT (Colon): Inactive: inactive, if IC50 > 100 μM. To be noted: SRB assay, 48 hours incubation. The protocol: as §1
A further series deals with THP-1 (Leukemia). As to the kind of experiment: Sulphorhodamine B cytotoxicity assay, THP-1. Format: cell-based, human. To be noted: Homo sapiens, THP-1; SRB assay, 48 hours incubation; read-out: Human cancer cell lines IC50, THP-1 (Leukemia). The protocol: as §1

Turning to `COc1ccc(/C=C2\C(=O)c3cc(OC)c(OC)c(OC)c3C2c2cc(OC)c(OC)c(OC)c2)cc1OC` (stereo not shown) [Compound 13, 2-(3″,4″-dimethoxybenzylidene), 3-(3′,4′,5′-trimethoxyphenyl)-4,5,6-trimethoxy indan-1-one], the melting point (commonly the temperature, or range, at which the solid turns liquid) lay in the range of 179 to 180 °C. The “Human cancer cell lines IC50, HeLa (Cervix)” value with HeLa (Cervix) is given as “Inactive”. For the same compound, the IC50 (commonly the concentration needed to halve the response being measured) with MCF-7 (Breast cancer) was 80.8 µM. Also, the “Human cancer cell lines IC50, PC-3 (prostate)” value in the series with PC-3 (prostate) was “Inactive”. Further, in the series with tubulin protein, the “inhibition of tubulin polymerisation, in words” value is “strong inhibition”. In addition, the IC50 with tubulin protein (read-out: Tubulin polymerisation inhibition IC50, tubulin 3 mg/mL, 37° C., 340 nm, 1 h) stood at 0.62 µM. For the same compound, the “Human cancer cell lines IC50, A549 (Lung)” value with A549 (Lung) was “Inactive”. The “Human cancer cell lines IC50, DU-145 (prostate)” value in the series with DU-145 (prostate) is recorded as “Inactive”. The “Human cancer cell lines IC50, HCT (Colon)” value in the series with HCT (Colon) is listed as “Inactive”. Also, the IC50 with THP-1 (Leukemia) came to 62 µM.
